US20060057069A1, “Detection of protein expression in vivo using fluorescent puromycin conjugates” (CALIFORNIA INSTITUTE OF TECHNOLOGY, priority 2004, published 2006)
Structures can show the parent of a compound that is named as a salt. Where two headings read alike, the source gives them in different places.

How the values were obtained:
[1] = system: globin translation; conditions: previously shown, ref [14]; read-out: IC50 (in vitro translation inhibition) from reference [14]; cited from earlier work
[2] = system: cultured hippocampal neurons; assay: F2P (fluorescein-dC-puromycin) reporter of endogenous protein synthesis in cultured hippocampal neurons; type: cell-based, rat; conditions: for effect of co-application on basal F2P fluorescence in dendrites: co-application with F2P
Experimental: Dissociated hippocampal neurons were prepared and maintained as previously described. Briefly, hippocampi from postnatal day 2 Sprague-Dawley rat pups were enzymatically and mechanically dissociated and plated into poly-lysine coated glass-bottom petri dishes (Mattek). Neurons were maintained for 14-21 days at 37° C. in growth medium (Neurobasal A supplemented with B27 and Glutamax-1, Invitrogen).
All images were acquired with an Olympus IX-70 confocal laser scanning microscope running Fluoview software (Olympus America, Inc). GFP, Alexa 488, and F2P were excited with the 488 nm line of an argon ion laser, and emitted light was collected between 510 and 550 nm. Alexa 568 was excited with the 568 nm line of a krypton ion laser, and emitted light was collected above 600 nm. In experiments where two channels were acquired simultaneously, settings were chosen to ensure no signal bleed-through between channels. For between-dish comparisons on a given day, all images were acquired at the same settings, without knowledge of the experimental condition during image acquisition. All post-acquisition processing and analysis was carried out with ImageJ (NIH) and Matlab (The MathWorks, Inc.). To facilitate the analysis of fluorescence signal as a function of distance from the soma, dendrites were linearized and extracted from the full-frame image using a modified version of the Straighten plugin for ImageJ.
To determine whether D1/D5 receptors activate the translation of endogenous mRNAs in living neurons, fluorescein-dC-puromycin (F2P), a novel protein synthesis reporter based on the peptidyl transferase inhibitor puromycin [35] was used. Because puromycin is a structural analog of an amino-acyl tRNA molecule, it enters ribosomes actively engaged in translation where it becomes covalently attached to the carboxy-terminus of nascent proteins through a peptide linkage. Initially, whether F2P can serve as a protein synthesis reporter in cultured hippocampal neurons was examined (FIGS. 11A, B). […] (FIG. 11B).

[3] = system: 16610D9 thymocyte cells; assay: Detection of protein synthesis events in live cells by flow cytometry (fluorescence labeling); type: cell-based
Experimental: 16610D9 cells (0.5 million mL^−1) were combined with the various puromycin conjugates and control molecules resuspended in the minimum volume of PBS or media as described above. After a 24 h incubation, the cells were washed twice in 2 mL PBS+4% FCS and resuspended in PBS+4% FCS supplemented with 2% formaldehyde followed by incubation at 37° C. for 10 min or used directly after washing for immediate flow cytometry analysis.
In order to analyze the activity of puromycin conjugates in vivo, choosing of both an appropriate cell line and an appropriate quantitation and detection scheme was needed. While microscopy is a powerful means to analyze individual cells and small sections of tissue, performance of experiments where thousands to millions of cells could be examined for protein labeling was desired. Therefore, flow cytometry was chosen as the primary means to analyze uptake and incorporation of the conjugates. In addition to providing a quantitative measure of fluorescence and cell size, flow cytometry methods enable live cells and dead cells to be readily distinguished.

[4] = system: globin translation; assay: In vitro potency determination: inhibition of globin mRNA translation in rabbit reticulocyte lysate; type: biochemical; conditions: read-out: IC50: concentration of puromycin conjugate required for 50% inhibition of globin translation, 30° C. 60 min, standard error <5% in replicates
Experimental: Translation reactions containing [^35S]Met were mixed in batch on ice and added in aliquots to microcentrifuge tubes containing an appropriate amount of puromycin conjugate (or control molecule) dried in vacuo. […] Inhibitor, lysate preparation (including all components except template), and globin mRNA were mixed simultaneously and incubated at 30° C. for 60 min. Each reaction (2 μL) was combined with 8 μL of tricine loading buffer (80 mM Tris-Cl (pH 6.8), 200 mM DTT, 24% (v/v) glycerol, 8% sodium dodecyl sulfate (SDS), and 0.02% (w/v) Coomassie blue G-250), heated to 90° C. for 5 min, and applied entirely to a 4% stacking portion of a 15% tricine-SDS-polyacrylamide gel containing 20% (v/v) glycerol [29] (30 mA for 1 h, 30 min). Gels were fixed in 10% acetic acid (v/v) and 50% (v/v) methanol, dried, exposed overnight on a Phosphorlmager screen, and analyzed using a Storm Phosphorlmager (Molecular Dynamics).
Initial analysis began by examining the activity of each of the conjugates in vitro for their ability to inhibit protein translation.

[5] = system: 16610D9 thymocyte cells; assay: Western analysis of treated cells with anti-fluorescein antibody; type: cell-based, mouse; conditions: conjugates 25 μM; anisomycin 250 ng/mL
Experimental: Live cell number was determined using trypan blue exclusion dye and each sample was adjusted to contain an equal number of live cells. Cell pellets were resuspended in 2× lysis buffer (100 mM β-glycerophosphate, 3 mM EGTA, 2 mM EDTA, 0.2 mM sodium-orthovanadate, 2 mM DTT, 20 μg/ml aprotinin, 20 μg/ml leupeptin, 50 μg/ml trypsin inhibitor, and 4 μg/ml pepstatin, and 1% Triton X-100) and incubated on ice for 30 min. Cell debris was removed by centrifugation at 20,000×g for 30 min. Cell lysate was combined with SDS loading buffer (0.12 M Tris-Cl (pH 6.8), 20% glycerol, 4% (w/v) SDS, 2% (v/v) β-mercaptoethanol, and 0.001% bromophenol blue) and heated at 90° C. for 10 min. Samples were applied entirely to a 4% stacking portion of a 10% glycine-SDS-polyacrylamide gel (30 mA for 1 h, 30 min). Protein was transferred using standard Western transfer techniques and the blot was probed with an anti-fluorescein antibody followed by an anti-rabbit-horseradish peroxidase conjugate (Pierce chemicals). The chemiluminescence reaction was carried out using the ECL PLUS Western Blotting […] System (Amersham BioSciences).
Action of puromycin and the conjugates should result in proteins bearing these compounds at their C-terminus in vivo. Western blot analysis of cellular lysates was chosen to examine if incorporation occurred in vivo and compare the resulting signal with the control conjugates. […]

[6] = system: D1/D5 receptors; assay: Miniature excitatory postsynaptic currents (mEPSCs) in cultured hippocampal neurons; type: cell-based, rat; conditions: anisomycin with DHX; PKI6-22 in the recording pipette
Description: Given the increase in the total and synaptic GluRl population, the effects of dopamine agonists on synaptic transmission was examined. To monitor synaptic strength before and after exposure to a dopamine agonist, miniature excitatory postsynaptic currents (mEPSCs) in cultured hippocampal neurons were examined.

[7] = system: dopamine D1/D5 receptor; assay: GFP protein synthesis reporter imaging in cultured hippocampal neurons; type: cell-based, rat; conditions: co-application with SKF
Experimental: Dissociated hippocampal neurons were prepared and maintained as previously described [34]. Briefly, hippocampi from postnatal day 2 Sprague-Dawley rat pups were enzymatically and mechanically dissociated and plated into poly-lysine coated glass-bottom petri dishes (Mattek). Neurons were maintained for 14-21 days at 37° C. in growth medium (Neurobasal A supplemented with B27 and Glutamax-1, Invitrogen).
All images were acquired with an Olympus IX-70 confocal laser scanning microscope running Fluoview software (Olympus America, Inc). GFP, Alexa 488, and F2P were excited with the 488 nm line of an argon ion laser, and emitted light was collected between 510 and 550 nm. Alexa 568 was excited with the 568 nm line of a krypton ion laser, and emitted light was collected above 600 nm. […] To facilitate the analysis of fluorescence signal as a function of distance from the soma, dendrites were linearized and extracted from the full-frame image using a modified version of the Straighten plugin for ImageJ.
Dendrites were analyzed for time-lapse as follows: fluorescence was averaged across the width of linearized dendrites, generating a vector of mean pixel intensities equal to the length of the dendrite, ΔF/F (Ftn-Ft0/Ft0) was then computed at each pixel along the dendritic length. […]

[8] = system: 16610D9 cells infected with MIGPAC; assay: Enrichment of GFP(+) MIGPAC-infected (PAC-expressing) cells, flow cytometry; type: cell-based, mouse; conditions: 48 h; 4.3% GFP-positive before treatment
Experimental: (§1) The PAC gene was cloned into MIG using BgII and EcoRI restriction sites to yield MIGPAC. 293T-HEK fibroblasts (American Tissue Culture Collection) were co-transfected with pECL-Eco [30] and MIG or MIGPAC by calcium phosphate precipitation. After 12 hours, the precipitate was removed, cells were washed once with PBS, and 4 mL of fresh complete Dulbecco's Modified Eagle Medium (DMEM) supplemented with 10% fetal calf serum (FCS). Viral supernatant was removed 24 hours later and used in infection of 16610D9 cells. One million D9 cells were spin-infected with 0.4 mL of viral supernatant suplemented with 5 μg/ml Polybrene (Sigma-Aldrich).
(§2) 16610D9 cells infected with either MIG of MIGPAC were cultured in RPMI media with 10% FBS and grown at […] in a humidified atmosphere with 5% CO2. For each experiment, 16610D9 cells (0.25×10^6/well) were added to 24-well microtiter plates along with puromycin, puromycin-conjugate, and control molecules dissolved in the minimum amount of either media or PBS. After a 48 h incubation, the cells were washed twice in 2 mL PBS+4% FCS and resuspended in PBS+4% FCS supplemented with 2% formaldehyde along with incubation at 37° C. for 10 min. […]
(§3) Foreign genes can be inserted into D9 cells by infection with a viral vector (see Experimental Procedures). […] MIG expresses GFP so that infection efficiency can be monitored by GFP fluorescence (FIG. 7A). […]

[9] = system: 16610D9 cells infected with MIG; assay: Killing of MIG-infected (no PAC resistance) cells, flow cytometry; type: cell-based, mouse; conditions: long exposure, 48 h incubation
Experimental: as §1, §2, §3

[10] = 24 h incubation, conjugates at 50 μM, live-cell gate

For biotin-puromycin, the IC50 [1] is given as 54 µM.

For `Oc1cc2c(cc1O)[C@H]1c3ccccc3CN[C@@H]1CC2` (racemic) [DHX, dihydrexidine], the “F2P incorporation in locally perfused dendrites compared to control dendrites” value ([2]; perfused 15 minutes on dendritic segment, p<0.05, n=8 dendrites) was “significantly greater F2P incorporation”.

With fluorescein-dC-puromycin [F2P] the “enhanced fluorescence relative to the F2A control molecule” value ([3]; 5 μM and 25 μM, live cell population) was “up to 4 fold”, the “effect on cell viability” value ([3]; 5 μM and 25 μM, F2P statement for 48 hours incubation) was “kills the majority of cells” and the “rank order of fluorescence enhancement” value [3, 10] was “DMT-F2P-Me (12)>FB2P (1)˜BF2P (8)>F2P (4)˜F2P-Me (10)>FP”. For the same molecule, the IC50 [4] was 22 µM and the “F2P reporter fluorescence in neurons” value ([2]; brief (˜15 min) bath application) was “fluorescence detected in both the cell body and the dendrites”.

In the case of biotin-dC-puromycin, the IC50 [1] is listed as 11 µM.

In the case of Fluorescein-puromycin [FP], the IC50 [1] is listed as 120 µM, the “rank order of fluorescence enhancement” value [3, 10] is listed as “DMT-F2P-Me (12)>FB2P (1)˜BF2P (8)>F2P (4)˜F2P-Me (10)>FP” and the “relative level of fluorescence enhancement” value [3, 10] is listed as “small fluorescence enhancement”.

With `COc1ccc(C[C@H]2NC[C@H](O)[C@H]2OC(C)=O)cc1` [anisomycin] the “incorporation into cellular protein (anti-fluorescein Western signal)” value [5] was “essentially no signal”, the “effect on DHX-induced increase in mEPSC frequency” value [6] was “completely prevented” and the “effect of co-application on the effects of SKF on GFP signal” value [7] was “completely prevented”. For the same molecule, the “effect of co-application on basal F2P fluorescence in dendrites” value [2] was “significantly attenuated” and the “effect on DHX-produced enhancement of F2P incorporation” value ([2]; preincubation and perfusion with anisomycin, p<0.01) was “completely blocked”.

For `COc1ccc(C[C@H](N)C(=O)N[C@H]2[C@@H](O)[C@H](n3cnc4c(N(C)C)ncnc43)O[C@@H]2CO)cc1` [puromycin, L-Puromycin hydrochloride], the “GFP-positive cells in population after treatment” value [8] was 94%, the “effect on MIG infected cells (killing)” value [9] was “almost complete killing of both GFP-positive and GFP-negative cells” and the “effect of co-application on basal F2P fluorescence in dendrites” value [2] was “significantly attenuated”.
